Results reported in the NIST ThermoML archive (doi:10.1016/j.fluid.2015.12.055).
Numbers after ± are expanded uncertainties.

Details: Liquid, Vibrating tube method

SMILES	mass density (298.15 K, 101.33 kPa)	mass density (303.15 K, 101.33 kPa)	mass density (313.15 K, 101.33 kPa)	mass density (313.15 K, 5000 kPa)	mass density (323.15 K, 101.33 kPa)	mass density (333.15 K, 101.33 kPa)	mass density (343.15 K, 101.33 kPa)	mass density (353.15 K, 101.33 kPa)	mass density (363.15 K, 101.33 kPa)	mass density (293.15 K, 101.33 kPa)	mass density (273.15 K, 101.33 kPa)	mass density (283.15 K, 101.33 kPa)	mass density (313.15 K, 1999 kPa)	other results
CCn1cc[n+](C)c1.O=S(=O)([O-])C(F)(F)C(F)(F)C(F)(F)C(F)(F)F	1546.54 ± 4.7 kg/m3	1541.24 ± 4.6 kg/m3	1530.71 ± 4.6 kg/m3	1534.99 ± 4.7 kg/m3	1520.31 ± 4.5 kg/m3	1510.01 ± 4.5 kg/m3	1499.78 ± 4.4 kg/m3	1489.64 ± 4.3 kg/m3	1479.58 ± 4.3 kg/m3					mass density (313.15 K, 510 kPa): 1530.15 ± 4.6 kg/m3; mass density (313.15 K, 1007 kPa): 1530.64 ± 4.6 kg/m3; mass density (313.15 K, 2007 kPa): 1531.73 ± 4.6 kg/m3; mass density (313.15 K, 3005 kPa): 1532.82 ± 4.7 kg/m3; mass density (313.15 K, 4004 kPa): 1533.91 ± 4.7 kg/m3; mass density (313.15 K, 5999 kPa): 1536.06 ± 4.7 kg/m3
CCn1cc[n+](C)c1.F[B-](F)(F)F [1-ethyl-3-methylimidazolium tetrafluoroborate]	1279.7 ± 1.5 kg/m3	1275.89 ± 1.5 kg/m3	1268.33 ± 1.4 kg/m3		1260.85 ± 1.4 kg/m3	1253.45 ± 1.4 kg/m3	1246.11 ± 1.4 kg/m3	1238.83 ± 1.4 kg/m3	1231.6 ± 1.3 kg/m3	1283.53 ± 1.5 kg/m3				mass density (313.15 K, 503 kPa): 1268.82 ± 1.4 kg/m3; mass density (313.15 K, 999 kPa): 1269.09 ± 1.4 kg/m3; mass density (313.15 K, 2001 kPa): 1269.74 ± 1.5 kg/m3; mass density (313.15 K, 2998 kPa): 1270.26 ± 1.5 kg/m3; mass density (313.15 K, 4000 kPa): 1270.93 ± 1.5 kg/m3; mass density (313.15 K, 5002 kPa): 1271.59 ± 1.5 kg/m3; mass density (313.15 K, 6000 kPa): 1272.21 ± 1.5 kg/m3
CCn1cc[n+](C)c1.O=S(=O)([N-]S(=O)(=O)C(F)(F)C(F)(F)F)C(F)(F)C(F)(F)F	1593.65 ± 5 kg/m3	1588.12 ± 4.9 kg/m3	1577.13 ± 4.9 kg/m3	1582.86 ± 5 kg/m3	1566.23 ± 4.8 kg/m3	1555.4 ± 4.7 kg/m3	1544.63 ± 4.7 kg/m3	1533.92 ± 4.6 kg/m3	1523.27 ± 4.5 kg/m3	1599.21 ± 5 kg/m3	1621.64 ± 5.1 kg/m3	1610.4 ± 5.1 kg/m3	1579.57 ± 4.9 kg/m3	mass density (313.15 K, 497 kPa): 1577.9 ± 4.9 kg/m3; mass density (313.15 K, 1001 kPa): 1578.46 ± 4.9 kg/m3; mass density (313.15 K, 3003 kPa): 1580.67 ± 5 kg/m3; mass density (313.15 K, 4007 kPa): 1581.77 ± 5 kg/m3; mass density (313.15 K, 6004 kPa): 1583.94 ± 5 kg/m3
CCn1cc[n+](C)c1.O=S(=O)([N-]S(=O)(=O)C(F)(F)F)C(F)(F)F	1518.83 ± 4.5 kg/m3	1513.78 ± 4.5 kg/m3	1503.75 ± 4.4 kg/m3		1493.8 ± 4.4 kg/m3	1483.92 ± 4.3 kg/m3	1474.1 ± 4.2 kg/m3	1464.36 ± 4.2 kg/m3	1454.67 ± 4.1 kg/m3	1523.89 ± 4.5 kg/m3	1544.43 ± 4.7 kg/m3	1534.1 ± 4.6 kg/m3	1505.7 ± 4.5 kg/m3	mass density (313.15 K, 508 kPa): 1504.27 ± 4.4 kg/m3; mass density (313.15 K, 1002 kPa): 1504.75 ± 4.4 kg/m3; mass density (313.15 K, 3001 kPa): 1506.65 ± 4.5 kg/m3; mass density (313.15 K, 3997 kPa): 1507.6 ± 4.5 kg/m3; mass density (313.15 K, 5001 kPa): 1508.55 ± 4.5 kg/m3; mass density (313.15 K, 6005 kPa): 1509.49 ± 4.6 kg/m3
